# In patent US9868935B2, “Composition and method of stem cells for preservation of cardiac tissue” (CRIOESTAMINAL, SAÚDE E TECNOLOGIA, SA., priority 2012, dated 2018):
# Test system: CD34+ cells
# Assay: CD34+ cell proliferation after hypoxia 24 h then normoxia 6 days
# Format: cell-based, human
# Conditions: LPA 100 μM; 24 h hypoxia + 6 days normoxia (7 days period)
# From the text: LPA is highly mitogenic for quiescent cells. The mitogenic action of LPA involves the activation of a pertussis toxin-insensitive G protein with subsequent Ca^2+ mobilization and stimulation of protein kinase C, release of arachidonic acid in a GTP-dependent manner, and activation of a pertussis toxinsensitive Gi protein mediating inhibition of adenylate cyclase (van Corven, E. J., et al., Lysophosphatidate-induced cell proliferation: identification and dissection of signaling pathways mediated by G proteins. Cell, 1989. 59(1): p. 45-54). To determine whether LPA can induce the proliferation of CD34+ cells, a suspension of untreated or LPA-treated cells (2×10^^5 cells in 200 μL of X-vivo medium) was exposed to hypoxia for 24 h and then cultured under normoxia conditions for 6 additional days. LPA-treated cells increased their number approximately 3-fold over the 7 days period while untreated cells decreased to half of their initial number (FIG. 3A).
substance,measurement,value
lysophosphatidic acid [LPA],increase in cell number,approximately 3 fold
